Experimental data: the supplement of paper PMC10307832

Tests used:
Assay in all cases: relative viability (nuclei count vs DMSO), 5 days (fraction); higher = more cells survive
Imatinib + Navitoclax = compound: Cc1ccc(NC(=O)c2ccc(CN3CCN(C)CC3)cc2)cc1Nc1nccc(-c2cccnc2)n1 [Imatinib] + CC1(C)CCC(c2ccc(Cl)cc2)=C(CN2CCN(c3ccc(C(=O)NS(=O)(=O)c4ccc(N[C@H](CCN5CCOCC5)CSc5ccccc5)c(S(=O)(=O)C(F)(F)F)c4)cc3)CC2)C1 [Navitoclax] (partner 0.5 µM)
Procedure, shortened: (§1)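 Cells from lung cancer lines were seeded into 1536-well plates and, one day later, dosed by pin tool. Treatments were either a single drug or a fixed dose of an anchor drug with five library-drug doses (not always all listed) in √10 steps. After 5 days, nuclei were stained in a one-step fixation (final 0.05% Triton X-100, 1% formaldehyde, 1 ug/ml Hoechst) and counted on 4× images, and relative viability is the treated-to-vehicle nuclei ratio, as the median of duplicate plates.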

Imatinib + Palbociclib = compound: Cc1ccc(NC(=O)c2ccc(CN3CCN(C)CC3)cc2)cc1Nc1nccc(-c2cccnc2)n1 [Imatinib] + CC(=O)c1c(C)c2cnc(Nc3ccc(N4CCNCC4)cn3)nc2n(C2CCCC2)c1=O [Palbociclib] (partner 0.5 µM)
Procedure, shortened: as §1

Imatinib + Tozasertib = compound: Cc1ccc(NC(=O)c2ccc(CN3CCN(C)CC3)cc2)cc1Nc1nccc(-c2cccnc2)n1 [Imatinib] + Cc1cc(Nc2cc(N3CCN(C)CC3)nc(Sc3ccc(NC(=O)C4CC4)cc3)n2)n[nH]1 [Tozasertib] (partner 0.1 µM)
Procedure, shortened: as §1

Imatinib + AZD7762 = compound: Cc1ccc(NC(=O)c2ccc(CN3CCN(C)CC3)cc2)cc1Nc1nccc(-c2cccnc2)n1 [Imatinib] + NC(=O)Nc1cc(-c2cccc(F)c2)sc1C(=O)N[C@H]1CCCNC1 [AZD7762] (partner 0.2 µM)
Procedure, shortened: as §1

Cell Line	relative viability (Imatinib + Navitoclax; first compound 0.02 µM)	relative viability (Imatinib + Navitoclax; first compound 0.06325 µM)	relative viability (Imatinib + Navitoclax; first compound 0.2 µM)	relative viability (Imatinib + Navitoclax; first compound 0.6325 µM)	relative viability (Imatinib + Navitoclax; first compound 2 µM)	relative viability (Imatinib + Palbociclib; first compound 0.02 µM)	relative viability (Imatinib + Palbociclib; first compound 0.06325 µM)	relative viability (Imatinib + Palbociclib; first compound 0.2 µM)	relative viability (Imatinib + Palbociclib; first compound 0.6325 µM)	relative viability (Imatinib + Palbociclib; first compound 2 µM)	relative viability (Imatinib + Tozasertib; first compound 0.02 µM)	relative viability (Imatinib + Tozasertib; first compound 0.06325 µM)	relative viability (Imatinib + Tozasertib; first compound 0.2 µM)	relative viability (Imatinib + Tozasertib; first compound 0.6325 µM)	relative viability (Imatinib + Tozasertib; first compound 2 µM)	relative viability (Imatinib + AZD7762; first compound 0.02 µM)	relative viability (Imatinib + AZD7762; first compound 0.06325 µM)	relative viability (Imatinib + AZD7762; first compound 0.6325 µM)	relative viability (Imatinib + AZD7762; first compound 2 µM)	relative viability (Imatinib + AZD7762; first compound 0.2 µM)
Calu-6	0.976	0.804	0.777	0.85	0.814	–	–	–	–	–	–	–	–	–	–	–	–	–	–	–
NCI-H650	–	–	–	–	–	0.303	0.356	0.353	0.349	0.298	0.832	0.682	0.851	0.697	0.764	1.11	0.882	1.03	0.979	–
NCI-H661	–	–	–	–	–	0.428	0.368	0.393	0.394	0.412	0.383	0.393	0.365	0.344	0.347	–	–	–	–	–
NCI-H2009	1.22	1.22	1.23	1.17	1.11	0.202	0.157	0.194	0.2	0.203	0.832	–	0.765	0.71	0.711	–	–	–	–	–
SK-MES-1	1.41	1.29	1.33	1.37	1.44	0.318	0.336	0.321	0.316	0.294	0.994	1.02	1.13	0.906	0.821	–	–	–	–	–
NCI-H1648	–	–	–	–	–	0.23	0.262	0.256	0.267	0.237	0.542	0.349	0.426	–	0.443	0.723	0.732	0.642	0.526	0.686
NCI-H520	1.24	1.14	1.18	1.04	1.12	0.25	0.21	0.198	0.242	0.213	0.474	0.509	0.366	0.424	–	–	–	–	–	–
COR-L23	1.11	1.32	1.5	1.04	1.03	0.329	0.226	0.303	0.31	0.297	0.226	0.174	0.165	0.161	0.154	–	–	–	–	–
NCI-H1299	1.02	1.11	1.08	1.01	1.04	–	–	–	–	–	–	–	–	–	–	–	–	–	–	–
NCI-H1703	1.39	1.12	0.586	0.383	0.238	–	–	–	–	–	–	–	–	–	–	0.135	–	0.124	0.114	0.103
NCI-H596	1.07	0.861	1	0.876	–	–	–	–	–	–	0.886	0.964	0.993	0.72	0.829	1.21	1.03	0.948	1.13	–
EBC-1	0.398	0.399	0.382	0.327	0.379	–	–	–	–	–	–	–	–	–	–	–	–	–	–	–
